{"source": "paper PMC5520057", "about": "“Modulation of nongenomic activation of PI3K signalling by tetramerization of N-terminally-cleaved RXRα” (Nature Communications, 2017)", "key": {"[1]": {"test_system": "tRXRα", "design": "method as in PMID 20541701", "conditions": "cited from earlier work"}, "[2]": {"test_system": "tRXRα", "assay": "Subcellular localization of tRXRα, immunostaining", "format": "cell-based", "conditions": "MCF-7 cells; K-80003 (5 × 10^−6 M) for 3 h, then TNFα (10 ng ml^−1) for 30 min", "procedure": "Cells mounted on glass slides or tumour tissue frozen sections (5-μm-thick) were washed with PBS and fixed in 4% paraformaldehyde (PFA) for 15 min and permeabilized with PBS containing 0.1% Triton X-100 for 15 min. Fixed cells or tumour tissues were blocked with 5 mg ml^−1 BSA in PBS for 30 min at room temperature, followed with incubation with primary antibodies for 3 h and secondary antibodies at room temperature for 1 h and co-stained with 4′6′-diamidino-2-phenylindole (DAPI) to visualize nuclei. The images were taken under an LSM-510 confocal laser scanning microscope system (Carl Zeiss)."}, "[3]": {"test_system": "tRXRα/R316E", "assay": "BS3 crosslinking, tRXRα/R316E", "format": "cell-based", "conditions": "MCF-7 cells, 9-cis-RA (10^−7 M) or K-80003 (5 × 10^−6 M) for 6 h", "procedure": "Cell lysates were then prepared and incubated with bis[sulfosuccinimidyl] suberate (BS3, Pierce) dissolved in dimethyl sulfoxide to a final concentration of 1 mM. The reactions were stopped with protein gel loading buffer. Samples were resolved by SDS/PAGE in 8% acrylamide gels and protein bands were visualized by western blotting."}, "[4]": {"test_system": "RXRα-LBD/L433D", "assay": "ITC, RXRα-LBD/L433D mutant", "format": "binding, human", "conditions": "25 °C, protein 50 μM, pH 7.5, compound 1 mM", "procedure": "(§1) The human RXRα LBD (residues Thr223 to Thr462) cloned as an N-terminal histidine-tagged fusion protein in pET15b expression vector was expressed in Escherichia coli BL21 strain (Stratagene). After sonication, cell extract was incubated with the His60 Ni Superflow resin, and His-tagged RXRα-LBD-resin complexes were washed, eluted and concentrated to 5 mg ml^−1 for subsequent trails. For crystallization experiment, bovine thrombin (Sigma) was used to cleave the His tag from the purified His-tagged RXRα-LBD. The resulting His tag was removed on the Resource-Q column (GE) using 0.1–1 M NaCl gradient and the Tris-Cl pH 8 buffer. RXRα-LDB was further purified using gel filtration on a Superdex 200 2660 column (GE) pre-equilibrated with the 75 mM NaCl, 20 mM Tris-Cl buffer (pH 8).\nBinding of compounds to RXRα-LBD or mutant was studied in […] at 25 °C using isothermal titration calorimetry (ITC) assay that measures the heat either released or absorbed during binding. The purified His-tagged RXRα-LBD or mutant protein (50 μM in 25 mM Tris-HCl, pH 7.5, 150 mM NaCl, 0.1% DMSO) was placed in the sample cell of MicroCal VP-ITC titration calorimeter. The compounds to be studied were diluted to a concentration of 1 mM in the same buffer. All solutions were degassed before the titrations. […] Calorimetric data were analysed using MicroCal Origin software (version 7.0)."}, "[5]": {"biological_target": "T1, RXRα-LBD (Homo sapiens, UniProt P19793)", "T1 construct": "The human RXRα LBD (residues Thr223 to Thr462); made in house; host or cells: Escherichia coli BL21", "T1 sequence (P19793 223-462)": "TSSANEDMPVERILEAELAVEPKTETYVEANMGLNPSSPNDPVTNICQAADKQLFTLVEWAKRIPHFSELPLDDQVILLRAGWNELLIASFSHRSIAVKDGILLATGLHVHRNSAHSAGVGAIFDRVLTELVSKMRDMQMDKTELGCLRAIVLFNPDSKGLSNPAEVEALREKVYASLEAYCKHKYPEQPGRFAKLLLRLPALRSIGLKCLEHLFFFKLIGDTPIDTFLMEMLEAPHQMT", "assay": "Crystal structure of RXRα-LBD complex", "format": "binding", "conditions": "crystal structure at 2.6 Å, PDB 5TBP", "procedure": "as §1\nCrystallization conditions were initially determined using the sitting-drop vapor-diffusion method and the crystallization screens Index and PEG-Ion solutions from Hampton Research. Final crystals were obtained by cocrystallizing the protein and the ligand. The protein-ligand complex contained 0.35 mM of RXRα-LBD, 0.5–0.7 mM of a ligand, 1% DMSO, 100 mM NaCl and 20 mM Tris-Cl buffer (pH 7.6). 0.2 μl of the protein-ligand complex was mixed with 0.2 μl of the well solution (20% […] and 0.2 M Na Acetate) and incubated at 20 °C. Crystals appeared in 5–10 days and grew into 0.2 × 0.1 × 0.1 mm prisms. The crystals were flash-cooled in mother liquor containing 1.5 mM of K-80003 and 20% glycerol as a cryoprotectant. Diffraction data was collected from the cryo-cooled crystal (100 K) on an in-house diffractometer (Rigaku X-ray generator with a rotating anode, VariMax optic and R-AXIS HTC detector). Data was processed using the programme iMOSFLM, part of the CCP4 suite. The b-factor of the data set according to the Wilson plot was 60 Å^2.\nThe crystal structures were determined using the molecular replacement program Phaser[76] with pdb entry 4N8R as an initial model. Coot[77] and the program suite Phenix[78] were used for the model rebuilding and refinement. […]"}, "[6]": {"test_system": "MCF-7/tRXRα tumour", "assay": "MCF-7/tRXRα xenograft in nude mice, tumour growth", "format": "in vivo", "conditions": "K-80003 20 mg kg^−1 i.p. daily for 12 days, n=6 in each group", "procedure": "For nude mice xenograft study, Myc-RXRα and Myc-tRXRα cloned into pcdna3.0 vector were stably transfected into MCF-7 cells, and the resulting stable clones and control clone (2 × 10^6 cells in 100 μl) were injected subcutaneously into nude mice (BALB/c, SPF grade, 16–18 g, 4–5-week old). For drug treatment, mice were intraperitoneally injected (i.p.) daily with K-80003 (20 mg kg^−1) diluted in Tween-80 or vehicle (tween-80). Body weight and tumour size were measured every 2 days. Mice were killed after 12-day drug treatment and the tumours removed for various assessments. For MMTV-PyMT transgenic mouse study, 4-week old female mice of a transgenic mouse on the FVB/N genetic background expressing the PyMT oncogene under the control of MMTV LTR promoter[40] were fed with diet containing with or without K-80003 (100 mg kg^−1) for 4 weeks. Estimation of tumour appearance was performed by palpation once every day. Tumour tissues of left thoracic mammary glands were excised after the treatment. Portion of tissues was used to prepare extracts for western blotting, while the rest was fixed in 4% phosphate-buffered paraformaldehyde, and used for immunohistochemical staining using anti-Ki67 antibody and immunostaining using Δ197 anti-RXRα antibody. All experimentations and animal usage were performed and approved by the Animal Care and Use Committee of Xiamen University."}}}
{"smiles": "CC1=C(CC(=O)O)c2cc(F)ccc2/C1=C\\c1ccc(C(C)C)cc1", "note": "[K-80003]", "values": [{"measurement": "binding to tRXRα", "setting": "[1]", "result": "binds to tRXRα"}, {"measurement": "effect on TNFα-induced cytoplasmic colocalization of tRXRα with p85α", "setting": "[2]", "result": "inhibited, resulting in tRXRα nuclear localization"}, {"measurement": "oligomeric state of tRXRα/R316E", "setting": "[3]", "result": "strong tetrameric species of tRXRα/R316E but not tRXRα/F313A independent of the presence of 9-cis-RA or K-80003"}, {"measurement": "binding to RXRα-LBD/L433D", "setting": "[4]", "result": "failed to bind to RXRα-LBD/L433D"}, {"measurement": "binding mode", "setting": "[5]", "result": "‘3-pronged’ binding mode"}, {"measurement": "molecules bound per tetramer", "setting": "[5]", "result": "six molecules of K-80003-bound per tetramer"}, {"measurement": "molecules bound per interfacial cavity", "setting": "[5]; A1/B2 or A2/B1 cavity", "result": "three molecules per A1/B2 or A2/B1 interfacial cavity"}, {"measurement": "effect on tRXRα-promoted growth of MCF-7 tumour", "setting": "[6]", "result": "suppressed"}]}
